Target: T1, human NAD+-dependent 15-hydroxyprostaglandin dehydrogenase (HPGD, 15-PGDH) (Homo sapiens, UniProt P15428)
T1 sequence (P15428 1-266): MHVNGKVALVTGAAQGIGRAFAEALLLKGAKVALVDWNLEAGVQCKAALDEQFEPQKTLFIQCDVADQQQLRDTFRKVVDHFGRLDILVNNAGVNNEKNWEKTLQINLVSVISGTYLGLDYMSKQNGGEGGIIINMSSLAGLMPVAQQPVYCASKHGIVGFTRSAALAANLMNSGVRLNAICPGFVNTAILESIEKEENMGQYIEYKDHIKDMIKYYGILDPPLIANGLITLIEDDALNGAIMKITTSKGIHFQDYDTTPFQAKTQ
Assay: HPGD HTS enzymatic assay
Format: biochemical

For `Cc1cccc(-n2cnc3cc(C(=O)N4CCCC4)ccc32)c1` [Compound 11i], the “decrease in HPGD activity relative to ML148” value was 20 fold.

Source: PMC3970110 (Bioorganic & medicinal chemistry letters, 2013)
